Results reported in US20130261173A1, “CYCLODEXTRIN-BASED POLYMERS FOR THERAPEUTIC DELIVERY” (CERULEAN PHARMA INC., priority 2009, published 2013).
Where “and” joins values, the source holds several entries; their conditions need not be identical. Equal entries are not always repeated. Where two headings read alike, the source gives them in different places.

What was measured:
[1] = Tolerability in the murine melanoma model (body weight); assay type: in vivo, male C57BL/6 mice
Experimental: The treatments were administered IV into the tail vein at a dose volume of 10 mL/kg, beginning on post-implantation day 5, when the mean tumor volume was ca. 60 mm^3. Animals were monitored for any morbidity and adverse effect three times a week. In addition, body weight and tumor volume were also measured three times a week.
Tolerability was determined by changes in body weight, expressed as a percent of the initial body weight on post-implantation day 5. Health monitoring was conducted three times a week to evaluate lethargy, tremors, hypothermia, ataxia, hind limb paralysis etc. The criteria at which a mouse was removed from the study were >20% body weight loss or severe morbidity or hind limb paralysis.

B16.F10 cells [2] = test: Efficacy in a murine melanoma model (subcutaneous B16.F10 tumors); assay type: in vivo, male C57BL/6 mice
Experimental: Animals were monitored for any morbidity and adverse effect three times a week.
Tumor volume was calculated with a (width×width×length)/2 mm^3 formula.

B16.F10 cells [3] = test: CellTiter-Glo Luminescent Cell Viability Assay (cytotoxicity); assay type: cell-based, murine
Experimental: To measure the cytotoxic effect of CDP-linker-docetaxel compounds, the CellTiter-Glo Luminescent Cell Viability Assay (CTG) was used. […] B16.F10 cells, grown to 85-90% confluency in 150 cm2 flasks (passage <30), were resuspended in media (MEM-alpha, 10% HI-FBS, 1×antibiotic-antimycotic solution) and added to 96-well opaque-clear bottom plates at a concentration of 1500 cells/well in 200 μL/well. The cells were incubated at 37° C. with 5% CO2 for 24 hours. The following day, serial dilutions of 2× concentrated particles and 2× concentrated free drug were made in 12-well reservoirs with media to specified concentrations. The media in the plates was replaced with […], of fresh media and 100 μL of the corresponding serially diluted drug. Three sets of plates were prepared with duplicate treatments. Following 24, 48 and 72 hours of incubation at 37° C. with 5% CO2, the media in the plates was replaced with 100 μL of fresh media and 100 μL of CTG solution, and then incubated for 5 minutes on a plate shaker at room temperature set to 450 rpm and allowed to rest for 15 minutes. Viable cells were measured by luminescence using a microtiter plate reader. The data was plotted as % viability vs. concentration and standardized to untreated cells.

[4] = 15 mg/kg IV, weekly schedule for 3 injections
[5] = 30 mg/kg IV, weekly schedule for 3 injections (study of 1.4, 2.3, 4.2, 5.2)
[6] = 15 mg/kg IV, three injections over 2 weeks (twice per week)
[7] = 30 mg/kg IV, biweekly schedule for 2 injections
[8] = 30 mg/kg IV, weekly schedule for 3 injections (study of 1.5)
[9] = 15 mg/kg IV, three injections over 2 weeks (twice per week), listed as free docetaxel

CDP-2′-aminoethoxyethoxy-Docetaxel [CDP-aminoethoxyethoxy-DTX formulation]
Maximum body weight loss (%) [1, 4]: 7%
Maximum body weight loss (%) [1, 5]: 23%

CDP-2′-hexanoate-docetaxel [CDP-Hex-DTX formulation]
Tumor growth delay (TGD) (B16.F10 cells [2]; mouse, in vivo): 10 days
Tumor growth inhibition (% TGI) (B16.F10 cells [2]; mouse, in vivo): 66%
increase in TGD (B16.F10 cells [2]; mouse, in vivo): 53%
IC50 (B16.F10 cells [3]): 325 to 440 nM

CDP-2′-alanine glycolate-docetaxel [CDP-Ala Gly-DTX formulation]
IC50 (B16.F10 cells [3]): 0.4 to 2 nM

CDP-2′-glycine-docetaxel [CDP-Gly-DTX formulation]
IC50 (B16.F10 cells [3]; B16.F10 cells, 72 hours after treatment): 1.2 to 3.7 nM

CC(=O)O[C@@]12CO[C@@H]1C[C@H](O)[C@@]1(C)C(=O)[C@H](O)C3=C(C)[C@@H](OC(=O)[C@H](O)[C@@H](NC(=O)OC(C)(C)C)c4ccccc4)C[C@@](O)([C@@H](OC(=O)c4ccccc4)[C@H]21)C3(C)C [Free docetaxel, docetaxel, reference compound]
Maximum body weight loss (%) [1, 6]: 3%
Maximum body weight loss (%) [1, 4]: 0%
Maximum body weight loss (%) [1, 7]: 5%
Maximum body weight loss (%) [1, 5]: 8%
Maximum body weight loss (%) [1, 8]: 12%
Tumor growth delay (TGD) (B16.F10 cells [2]; [6]): 15 days
Tumor growth inhibition (% TGI) (B16.F10 cells [2]; [6]): 97%
increase in TGD (B16.F10 cells [2]; [6]): 79%
Tumor growth inhibition (% TGI) (B16.F10 cells [2]; [9]): 97%
day the mean tumor volume endpoint (≧3000 mm^3) was reached (B16.F10 cells [2]; [9]): 34 days and 35 days
survival (B16.F10 cells [2]; 15 mg/kg IV, three injections over 2 weeks, day 33): 50%
survival (B16.F10 cells [2]; 15 mg/kg IV, three injections over 2 weeks, day 40): 0%
Tumor growth delay (TGD) (B16.F10 cells [2]; [4]): 7 days
Tumor growth inhibition (% TGI) (B16.F10 cells [2]; [4]): 68%
day the mean tumor volume endpoint (≧3000 mm^3) was reached (B16.F10 cells [2]; [4]): 26 days
increase in TGD (B16.F10 cells [2]; [4]): 37%
Tumor growth inhibition (% TGI) (B16.F10 cells [2]; 15 mg/kg IV, weekly schedule for 3 injections, listed as free docetaxel): 68%
survival (B16.F10 cells [2]; 30 mg/kg IV, biweekly for 2 injections, day 24): 50%
survival (B16.F10 cells [2]; 30 mg/kg IV, biweekly for 2 injections, day 31): 0%
Tumor growth delay (TGD) (B16.F10 cells [2]; [7]): 7 days
Tumor growth inhibition (% TGI) (B16.F10 cells [2]; [7]): 73%
day the mean tumor volume endpoint (≧3000 mm^3) was reached (B16.F10 cells [2]; [7]): 26 days
Tumor growth inhibition (% TGI) (B16.F10 cells [2]; 30 mg/kg IV, biweekly schedule for 2 injections, listed as free docetaxel): 73%
survival (B16.F10 cells [2]; 30 mg/kg IV, weekly for 3 injections (study of 1.4, 2.3, 5.2), day 29): 50%
survival (B16.F10 cells [2]; 30 mg/kg IV, weekly for 3 injections (study of 1.4, 2.3, 5.2), day 38): 0%
survival (B16.F10 cells [2]; 30 mg/kg IV, weekly for 3 injections (study of 1.5), day 40): 50%
survival (B16.F10 cells [2]; 30 mg/kg IV, weekly for 3 injections (study of 1.5), day 45): 0%
Tumor growth delay (TGD) (B16.F10 cells [2]; [5]): 12 days
day the mean tumor volume endpoint (≧3000 mm^3) was reached (B16.F10 cells [2]; [5]): 31 days
increase in TGD (B16.F10 cells [2]; [5]): 63%
Tumor growth delay (TGD) (B16.F10 cells [2]; [8]): 21 days
day the mean tumor volume endpoint (≧3000 mm^3) was reached (B16.F10 cells [2]; [8]): 41 days
increase in TGD (B16.F10 cells [2]; [8]): 105%
IC50 (B16.F10 cells [3]; Mus musculus, B16.F10 cells, 72 hours after treatment): 0.2 to 2 nM

CDP-dithiolethyloxy-carbonate-docetaxel [CDP-ethane-S—S-ethane-DTX formulation]
Maximum body weight loss (%) [1, 4]: 0%
Maximum body weight loss (%) [1, 5]: 0%
day the mean tumor volume endpoint (≧3000 mm^3) was reached (B16.F10 cells [2]; mouse, in vivo): 21 days and 24 days
IC50 (B16.F10 cells [3]): 23 nM
